Results from patent publication EP0403591B1, “CRF ANALOGS” (THE SALK INSTITUTE FOR BIOLOGICAL STUDIES, priority 1988, dated 1994).
“Also recorded” adds a separate entry of the source. Non-standard residues stand in square brackets, D forms with d. Residues, ends and D or L forms follow the SMILES beside them. No end group written: not given here. *: point of attachment. Nle = CCCC[C@H](N)C(=O)O; Bz = O=C(c1ccccc1)*

Assays:
[1] = system: cultured rat pituitary cells; assay: Secretion of ACTH and β-endorphin by cultured rat pituitary cells (procedure of Example III); assay type: cell-based; conditions: for EC50: stimulation of secretion of ACTH and β-endorphin by cultured rat pituitary cells, read-out: Half-maximal responses (concentration); for secretion of ACTH and β-END-LI: testing by the general procedure of Example III (in vitro and in vivo)
Experimental: The synthetic peptide from Example I and synthetic oCRF are examined for their effects on the secretion of ACTH and β-endorphin in vitro and also in vivo.
The potency of synthetic oCRF to stimulate the secretion of ACTH and β-endorphin by cultured rat pituitary cells is measured using the procedure as generally set forth in Endocrinology, 91, 562 (1972). Half-maximal responses are observed at concentrations of the peptide very substantially less than the synthetic oCRF concentrations of about 250 picomolar which are needed to achieve this response. In vivo testing is carried out using the general procedure set forth in C. Rivier et al., Science, 218, 377 (1982), and biological potency is ascertained.

[2] = background statement; in mammals; cited from earlier work
[3] = system: ACTH and β-endorphin; conditions: background statement; in vitro and in vivo; cited from earlier work
[4] = background statement; cited from earlier work
[5] = Lowering of blood pressure (in vivo testing, general procedure of Example III); conditions: testing by the general procedure of Example III
[6] = administered into the ventricles, rats; cited from earlier work

| Compound | secretion of ACTH and β-END-LI [1] | lowering of blood pressure [5] | further results |
| --- | --- | --- | --- |
| CC[C@H](C)[C@H](NC(=O)[C@H](CC(=O)O)NC(=O)[C@H](CC(C)C)NC(=O)[C@H](CC(C)C)NC(=O)[C@H](CCCCN)NC(=O)[C@H](CCCNC(=N)N)NC(=O)[C@H](CC(N)=O)NC(=O)[C@H](CO)NC(=O)[C@H](Cc1c[nH]cn1)NC(=O)[C@H](C)NC(=O)[C@H](CCC(N)=O)NC(=O)[C@H](CCC(N)=O)NC(=O)[C@H](C)NC(=O)[C@H](CC(C)C)NC(=O)[C@H](CCC(N)=O)NC(=O)[C@H](CC(=O)O)NC(=O)[C@H](C)NC(=O)[C@H](CCCCN)NC(=O)[C@@H](NC(=O)[C@H](CCSC)NC(=O)[C@H](CCC(=O)O)NC(=O)[C@H](CC(C)C)NC(=O)[C@@H](NC(=O)[C@H](CCC(=O)O)NC(=O)[C@H](CCCNC(=N)N)NC(=O)[C@H](CC(C)C)NC(=O)[C@H](CC(C)C)NC(=O)[C@H](Cc1c[nH]cn1)NC(=O)[C@H](Cc1ccccc1)NC(=O)[C@@H](NC(=O)[C@H](CC(C)C)NC(=O)[C@H](CC(=O)O)NC(=O)[C@H](CC(C)C)NC(=O)[C@H](CO)NC(=O)[C@@H](NC(=O)[C@@H]1CCCN1C(=O)[C@@H]1CCCN1C(=O)[C@H](CCC(=O)O)NC(=O)[C@H](CCC(N)=O)NC(=O)[C@@H](N)CO)[C@@H](C)CC)[C@@H](C)O)C(C)C)[C@@H](C)O)C(=O)N[C@@H](C)C(N)=O [oCRF, ovine CRF] | – | – | EC50 [1]: ~0.25 nM; lowering blood pressure [2]: biological activity in lowering blood pressure; also recorded: substantially lower blood pressure for an extended time period; secretion of ACTH and β-endorphin [3]: stimulating the secretion of ACTH and β-endorphin; also recorded: stimulate ACTH and β-endorphin activities in vitro and in vivo; gastric acid production [4]: inhibits gastric acid production |
| SQEPPISLDLTFHLLREVLH[Nle]TKADQLAQQAHSNRKLLDIA-NH2 [XV, [His²⁰, Nle²¹]-oCRF] | stimulates the secretion of ACTH and β-END-LI | very significant lowering of blood pressure | – |
| SQ[dY]PPISLDLTFHLLRE[Nle]LH[Nle]AKAGQEAEQAALNRLLLEEA-NH2 [XII] | stimulates the secretion of ACTH and β-END-LI | very significant lowering of blood pressure | – |
| SEEPPISLDLTFHLLREVLHMARAEQLAQQAHSNRKLMEII-NH2 [Example I, [His²⁰]-rCRF] | – | – | EC50 [1]: < 0.25 nM |
| Ac-PPISLDLTFHLLREVLHMARAEQLAEQAHSNRNLMEEI-NH2 [VII, [Acetyl-Pro⁴, His²⁰, Glu^29,40, Asn³⁶]-rCRF(4-41)] | stimulates the secretion of ACTH and β-END-LI | very significant lowering of blood pressure to a greater extent than rCRF | – |
| SEEPPISLDLTFHLLREVLH[Nle]ARAEQLAQQALINRKLMEEI-NH2 [VIII, [His²⁰, Nle²¹, Leu³², Ile³³, Glu⁴⁰]-rCRF] | stimulates the secretion of ACTH and β-END-LI | very significant lowering of blood pressure to a greater extent than rCRF | – |
| SQEPPISLDLTFHMLREMLHMAKMEQEAEQAALNRLLLEEA-NH2 [XVIII] | stimulates the secretion of ACTH and β-END-LI | very significant lowering of blood pressure | – |
| SQEPPISLDLTFHLLREVLHMTKADQLAQQAHSNRNLLDIA-NH2 [XIV, [His²⁰, Asn³⁶]-oCRF] | stimulates the secretion of ACTH and β-END-LI | very significant lowering of blood pressure | – |
| [D-Pro⁴, His²⁰]-oCRF(4-41) [XVI] | stimulates the secretion of ACTH and β-END-LI | very significant lowering of blood pressure | – |
| SQEPPISLDLTFHLLRE[Nle]LH[Nle]AKAEQEAEQAALNRLLLEEA-NH2 [XI] | stimulates the secretion of ACTH and β-END-LI | very significant lowering of blood pressure | – |
| SEEPPISLELTFHLLREVLH[Nle]ARAEQLAEQAHINRKLMEII-NH2 [V, [Glu⁹, His²⁰, Nle²¹, Glu²⁹, Ile³³]-rCRF] | stimulates the secretion of ACTH and β-END-LI | very significant lowering of blood pressure to a greater extent than rCRF | – |
| SEEPPISLDLTFHLLREVLHRARAEQLAQQALINRKLMEII-NH2 [IX, [His²⁰, Arg²¹, Leu³², Ile³³]-rCRF] | stimulates the secretion of ACTH and β-END-LI | very significant lowering of blood pressure to a greater extent than rCRF | – |
| CCCC[C@H](NC(=O)[C@H](Cc1c[nH]cn1)NC(=O)[C@H](CC(C)C)NC(=O)[C@H](CCCC)NC(=O)[C@H](CCC(=O)O)NC(=O)[C@H](CCCNC(=N)N)NC(=O)[C@H](CC(C)C)NC(=O)[C@H](CC(C)C)NC(=O)[C@H](Cc1c[nH]cn1)NC(=O)[C@H](Cc1ccccc1)NC(=O)[C@@H](NC(=O)[C@H](CC(C)C)NC(=O)[C@H](CC(=O)O)NC(=O)[C@H](CC(C)C)NC(=O)[C@H](CO)NC(=O)[C@@H](NC(=O)[C@@H]1CCCN1C(=O)[C@@H]1CCCN1)[C@@H](C)CC)[C@@H](C)O)C(=O)N[C@@H](C)C(=O)N[C@@H](CCCNC(=N)N)C(=O)N[C@@H](C)C(=O)N[C@@H](CCC(=O)O)C(=O)N[C@@H](CCC(N)=O)C(=O)N[C@@H](CCC(=O)O)C(=O)N[C@@H](C)C(=O)N[C@@H](CCC(=O)O)C(=O)N[C@@H](CCC(N)=O)C(=O)N[C@@H](C)C(=O)N[C@@H](CC(C)C)C(=O)N[C@@H](CC(C)C)C(=O)N[C@@H](CC(N)=O)C(=O)N[C@@H](CCCNC(=N)N)C(=O)N[C@@H](CC(N)=O)C(=O)N[C@@H](CC(C)C)C(=O)N[C@@H](CC(C)C)C(=O)N[C@@H](CCC(=O)O)C(=O)N[C@@H](CCC(=O)O)C(=O)N[C@@H](C)C(N)=O [XVII] (H-PPISLDLTFHLLRE[Nle]LH[Nle]ARAEQEAEQALLNRNLLEEA-NH2) | stimulates the secretion of ACTH and β-END-LI | very significant lowering of blood pressure | – |
| CRF: corticotropin releasing factor, species not specified (SEEPPISLDLTFHLLREVLEMARAEQLAQQAHSNRKLMEII; ends and bridges not checked; UniProt P06850 154-194, looked up) | – | – | activity and learning performance [6]: increases activity and improves learning performance |
| SQEPPISLELTFHLLRE[Nle]LHRAKAEQEAEQAALNRLLLEEA-NH2 [X] | stimulates the secretion of ACTH and β-END-LI | very significant lowering of blood pressure | – |
| Bz-GEEPPISLDLT[Nle]HLLREVLHMARAEQLAQQAHSNRRLMEII-NH2 [VI, [Benzoyl-Gly¹, Nle¹², His²⁰, Arg³⁶]-rCRF] | stimulates the secretion of ACTH and β-END-LI | very significant lowering of blood pressure | – |
| SQEPPISLDLTFHMLREMLHRAKMEGEAEQALINRNLLEEA-NH2 [XIII] | stimulates the secretion of ACTH and β-END-LI | very significant lowering of blood pressure | – |
| Rat CRF (SEEPPISLDLTFHLLREVLEMARAEQLAQQAHSNRKLMEII; ends and bridges not checked; UniProt P01143 145-185, looked up) [rCRF, hentetracontapeptide; formula of human CRF is the same as that of rCRF] | – | – | lowering blood pressure [2]: substantially lower blood pressure for an extended time period; secretion of ACTH and β-endorphin [3]: stimulate ACTH and β-endorphin activities in vitro and in vivo |
| SEEPPISLDLTFHLLREVLHMARAEGLAQQAHSNRKLMEII-NH2 [IV, [His²⁰, Gly²⁶)-rCRF] | stimulates the secretion of ACTH and β-END-LI | very significant lowering of blood pressure | – |
| Sauvagine | – | – | lowering blood pressure [2]: biological activity in lowering blood pressure; secretion of ACTH and β-endorphin [3]: stimulating the secretion of ACTH and β-endorphin |
| SQEPPISLDLTFHLLREMLHRAKAEQEAEQAAINRLLLEEA-NH2 [XIX] | stimulates the secretion of ACTH and β-END-LI | very significant lowering of blood pressure | – |
